{"source": "patent US20230227477A1", "about": "“COMPOUNDS FOR SENSING REACTIVE OXYGEN SPECIES AND METHODS FOR USING THE SAME” (WAKE FOREST UNIVERSITY HEALTH SCIENCES, priority 2020, published 2023)", "key": {"[1]": {"test": "DNFB trapping of released persulfide, LCMS (validation as ROS-activated persulfide donor)", "type": "physicochemical", "conditions": "200 μM compound, 1 mM DNFB", "description": "Initially, 5 mM stock solutions of compound RAH393, compound 5, and 2,4-dinitrofluorobenzene (DNFB) were prepared in 200-proof ethanol. In addition, a 100 mM stock solution of hydrogen peroxide in ammonium bicarbonate buffer (1 mM, pH 7.0) was prepared immediately prior to use. To a conical vial containing 1500 μL of 1M ammonium bicarbonate was then added 80 μL of the 5 mM stock of compound RAH393 (or control compound 5), 400 μL of the 5 mM DNFB stock, and 20 μL of 100 mM hydrogen peroxide giving a final concentrations of 200 μM compound RAH393 (or compound 5), 1 mM DNFB, and 1 mM H2O2. At the designated timepoints, a 100 μL aliquot of the room-temperature reaction was diluted with 900 μL of HPLC-grade methanol with 0.1% formic acid for analysis. 75 μL of the resultant solution was then injected onto C18 reverse phase column (Agilent Technologies, SB-C18 Analytical HPLC Col. 4.6×150) and eluted with HPLC-grade methanol (0.1% formic acid) and HPLC-grade water (0.1% formic acid) at a flow rate of 200 μL/min using the following gradient: 0-2 min, 90:10 water:methanol; 2-8 min, 40:60 water:methanol; 8-30 min, 10:90 water:methanol; 30-40 min, 5:95 water:methanol. Retention times of lactone compound 3 (25.0 min), compound RAH393 (35.6 min), compound 5 (27.7 min), and DNFB (16.5 min) were independently validated. When this assay was run using compound RAH393, in addition to compound 7 (21.7 min), the tri- and tetrasulfides of N-acetylcysteamine were also present (14.1 min and 16.2 min, respectively), further confirming persulfide release from compound RAH393."}, "HeLa cells [2]": {"test_system": "HeLa cells", "test": "Cytotoxicity in HeLa cells (phosphatase assay)", "type": "cell-based, human", "conditions": "various concentrations, 5 h incubation", "description": "First, compound RAH393 and lactone compound 3 were tested for cytotoxicity in HeLa cells. A population of cells (>6×10^6 cells/mL as determined with a hemocytometer) was diluted with FBS-free DMEM:F12-K, 1:1, 1% penicillin-streptomycin, and 1% L-glutamine to give a final concentration of 50,000 cells/mL. To a 96-well plate was added 100 μL of cell media solution resulting in a total of 5 k cells per well. Plates were then incubated at 37° C. in an atmosphere of 5% CO2 and 95% humidified air for 24 h. Fresh culture media (100 μL) was then added to each well of cells resulting in 200 μL of media per well followed by the addition of compound RAH393 or compound 3 at various concentrations (20 mM stock in biological-grade DMSO, resulting in no more than 1% DMSO per well). After incubating for 5 h, a phosphatase assay was used to establish cell viability as follows: Media was removed from each well and replaced with 100 μL of phosphatase solution (100 mg of phosphatase substrate, in 30 mL of 0.1 M NaOAc, pH 5.5, 0.1% Triton X-100 buffer). Following an incubation period of 30 min, 50 μL of 0.10 M NaOH was added to each well and viability was assessed spectrophotometrically at 405 nm using a 96-well plate reader (BioTek SYNERGY-HTX multi-mode reader, Winooski, Vt.). Assays were performed in triplicate and presented as the mean+/−STDEV."}, "HeLa cells [3]": {"test_system": "HeLa cells", "test": "Protective effects on HeLa cells under H2O2-induced oxidative stress (CCK-8 viability)", "type": "cell-based, human", "conditions": "pre-treatment 200 μM compound 1 h, then 200 μM H2O2 1 h, vs H2O2 alone", "description": "Next, the protective effects of compound RAH393 on cultured HeLa cells which were under oxidative stress were examined. A population of cells (>6×10^6 cells/mL as determined with a hemocytometer) was diluted with FBS-free DMEM:F12-K, 1:1, 1% penicillin-streptomycin, and 1% L-glutamine to give a final concentration of 50,000 cells/mL. To a 96-well plate was added 100 μL of cell media solution resulting in a total of 5 k cells per well. Plates were then incubated at 37° C. in an atmosphere of 5% CO2 and 95% humidified air for 24 h. Confluent cells were then pre-incubated in FBS-free media with compound RAH393 (or compound 5) (200 μM) for 1 h followed by treatment with H2O2 (200 μM) for an additional 1 h incubation period. Control wells with H2O2 alone (200 μM) were also evaluated on the same plate. After a total incubation period of 2 h, cell contents were then replaced with 100 μL of fresh FBS-free media with 10% CCK-8. Cells were then incubated for 3 h at 37° C. and cell viability was assessed by measuring the resulting absorbance at 450 nm using a 96-well plate reader (BioTek SYNERGY-HTX multi-mode reader, Winooski, Vt.)."}}}
{"smiles": "CC(=O)NCCSSC(=O)C(C)(C)Cc1ccccc1B1OC(C)(C)C(C)(C)O1", "note": "[compound RAH393]", "values": [{"measurement": "formation of trapped disulfide compound 7 (persulfide release), LCMS", "setting": "[1]; 1 mM H2O2, ammonium bicarbonate buffer, room temperature", "result": "formation of disulfide compound 7 was confirmed"}, {"measurement": "production of lactone compound 3, LCMS (in words)", "setting": "[1]; 1 mM H2O2, over a period of 25 min", "result": "linear increase in the production of lactone compound 3"}, {"measurement": "cytotoxicity toward HeLa cells (in words)", "setting": "HeLa cells [2]", "result": "neither compound RAH393 nor lactone compound 3 were toxic"}, {"measurement": "increase in cell viability", "setting": "HeLa cells [3]", "result": 100, "unit": "%"}]}
